# Experimental data as given in ChEMBL document CHEMBL1157413, “Pyronane monoterpenoids from the fruit of Gardenia jasminoides” (J Nat Prod, 2008).
# Target: T1, Tyrosinase (Agaricus bisporus, UniProt O42713)
# T1 sequence (O42713 whole entry): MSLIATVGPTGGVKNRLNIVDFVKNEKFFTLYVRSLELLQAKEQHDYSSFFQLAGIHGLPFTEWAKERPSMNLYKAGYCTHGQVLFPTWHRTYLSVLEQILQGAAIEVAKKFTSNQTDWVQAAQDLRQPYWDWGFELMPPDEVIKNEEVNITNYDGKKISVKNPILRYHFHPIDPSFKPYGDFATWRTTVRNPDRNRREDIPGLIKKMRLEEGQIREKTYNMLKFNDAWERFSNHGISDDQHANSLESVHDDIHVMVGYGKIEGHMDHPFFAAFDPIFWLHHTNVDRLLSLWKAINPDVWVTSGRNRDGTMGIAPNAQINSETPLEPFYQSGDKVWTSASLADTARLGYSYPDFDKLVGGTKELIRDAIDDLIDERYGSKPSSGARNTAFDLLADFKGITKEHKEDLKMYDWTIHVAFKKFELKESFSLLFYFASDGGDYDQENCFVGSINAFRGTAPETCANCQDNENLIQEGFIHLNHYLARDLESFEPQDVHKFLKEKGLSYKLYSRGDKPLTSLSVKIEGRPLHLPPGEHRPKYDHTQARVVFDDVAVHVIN
# Description: Inhibition of mushroom tyrosinase activity after 10 mins
compound,measurement,value
CC1(C)CC(=O)C=C(CO)[C@H]1CO [JASMINODIOL],IC50,2200 µM
